Experiment [1] concerns facial blood flow. Conditions: rat, trigeminal ganglion stimulation (Escott et al. 1995); cited from earlier work.
A further experiment has as its system middle meningeal artery. To be noted: rats, electrical stimulation of the dura mater, prior administration (Williamson et al. 1997); cited from earlier work.
The target of another experiment is T1, Human CGRP receptor (Homo sapiens, UniProt O60894+Q16602).
T1 construct: expressed in transfected cells; membranes
Briefly: Human CGRP receptor binding (125I-CGRP displacement). How it is done:
NATIVE RECEPTOR BINDING ASSAY: The binding of ^125I-CGRP to receptors in SK-N-MC cell membranes was carried out essentially as described (Edvinsson et al. (2001) Eur. J. Pharmacol. 415, 39-44). Briefly, membranes (25 μg) were incubated in 1 mL of binding buffer [10 mM HEPES, pH 7.4, 5 mM MgCl2 and 0.2% bovine serum albumin (BSA)] containing 10 pM ^125I-CGRP and antagonist. After incubation at room temperature for 3 h, the assay was terminated by filtration through GFB glass fibre filter plates (PerkinElmer) that had been blocked with 0.5% polyethyleneimine for 3 h. The filters were washed three times with ice-cold assay buffer (10 mM HEPES, pH 7.4 and 5 mM MgCl2), then the plates were air dried. Scintillation fluid (50 μL) was added and the radioactivity was counted on a Topcount (Packard Instrument). Data analysis was carried out by using Prism and the Ki was determined by using the Cheng-Prusoff equation (Cheng & Prusoff (1973) Biochem. Pharmacol. 22, 3099-3108).
RECOMBINANT RECEPTOR: Human CL receptor (Genbank accession number L76380) was subcloned into the expression vector pIREShyg2 (BD Biosciences Clontech) as a 5′NheI and 3′ PmeI fragment. Human RAMP1 (Genbank accession number AJ001014) was subcloned into the expression vector pIRESpuro2 (BD Biosciences Clontech) as a 5′NheI and 3′NotI fragment. HEK 293 cells (human embryonic kidney cells; ATCC #CRL-1573) were cultured in DMEM with 4.5 g/L glucose, 1 mM sodium pyruvate and 2 mM glutamine supplemented with 10% fetal bovine serum […], 100 units/mL penicillin and 100 μg/mL streptomycin, and maintained at 37° C. and 95% humidity. Cells were subcultured by treatment with 0.25% trypsin with 0.1% EDTA in HBSS. Stable cell line generation was accomplished by co-transfecting 10 μg of DNA with 30 μg Lipofectamine 2000 (Invitrogen) in 75 cm^2 flasks. CL receptor and RAMP1 expression constructs were co-transfected in equal amounts. Twenty-four hours after transfection the cells were diluted and selective medium (growth medium+300 μg/mL hygromycin and 1 μg/mL puromycin) was added the following day. A clonal cell line was generated by single cell deposition utilizing a FACS Vantage SE (Becton Dickinson). Growth medium was adjusted to 150 μg/mL hygromycin and 0.5 μg/mL puromycin for cell propagation.
RECOMBINANT RECEPTOR BINDING ASSAY: Cells expressing recombinant human CL receptor/RAMP1 were washed with PBS and harvested in harvest buffer containing 50 mM HEPES, 1 mM EDTA and Complete protease inhibitors (Roche). The cell suspension was disrupted with a laboratory homogenizer and centrifuged at 48,000 g to isolate membranes. The pellets were resuspended in harvest buffer plus 250 mM sucrose and stored at −70° C. For binding assays, 20 μg of membranes were incubated in 1 ml binding buffer (10 mM HEPES, pH 7.4, 5 mM MgCl2, and 0.2% BSA) for 3 hours at room temperature containing 10 pM ^125I-hCGRP (GE Healthcare) and antagonist. The assay was terminated by filtration through 96-well GFB glass fiber filter plates (PerkinElmer) that had been blocked with 0.05% polyethyleneimine. […]
[formula] Where Y is observed CPM bound, Ymax is total bound counts, Ymin is non specific bound counts, (Ymax−Ymin) is specific bound counts, % Imax is the maximum percent inhibition, % I min is the minimum percent inhibition, radiolabel is the probe, and the Kd is the apparent dissociation constant for the radioligand for the receptor as determined by Hot saturation experiments.

For experiment [2], the system named is facial blood flow. Conditions: marmoset, electrical stimulation of the trigeminal ganglion (Dodds et al. 2000); cited from earlier work.
In experiment [3] the test system is acute attacks of migraine. Conditions: clinical trials (Olesen et al. 2004); cited from earlier work.
The test system of experiment [4] is headache induced by CGRP infusion. To be noted: control group (Petersen et al. 2005); cited from earlier work.
[5] abbreviates: table of Examples 32-37, read-out: Ki.
Where [6] appears, read: read-out: Human CGRP receptor binding Ki.

Read-outs that look alike come from different tables or passages of the source. No end group written: not given here.

T1 sequence (Q16602 23-461): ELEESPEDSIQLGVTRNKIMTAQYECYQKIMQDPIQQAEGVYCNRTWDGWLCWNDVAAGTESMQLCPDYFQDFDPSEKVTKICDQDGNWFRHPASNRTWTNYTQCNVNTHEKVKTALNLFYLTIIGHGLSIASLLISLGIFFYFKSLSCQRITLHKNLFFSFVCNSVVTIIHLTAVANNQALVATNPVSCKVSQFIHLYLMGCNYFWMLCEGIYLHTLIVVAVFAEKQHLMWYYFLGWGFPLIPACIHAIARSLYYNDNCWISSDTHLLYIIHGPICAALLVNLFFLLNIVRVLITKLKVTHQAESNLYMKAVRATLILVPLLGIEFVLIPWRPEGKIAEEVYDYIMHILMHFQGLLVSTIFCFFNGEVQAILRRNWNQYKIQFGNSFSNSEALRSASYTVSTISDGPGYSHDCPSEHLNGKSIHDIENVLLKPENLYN
T1 sequence (O60894 27-148): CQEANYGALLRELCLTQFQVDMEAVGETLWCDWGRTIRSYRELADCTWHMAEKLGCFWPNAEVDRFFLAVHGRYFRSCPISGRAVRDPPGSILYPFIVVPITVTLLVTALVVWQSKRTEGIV

Turning to “CGRP (8-37): a peptide CGRP antagonist; fragment of CGRP that lacks seven N-terminal amino acid residues (VTHRLAGLLSRSGGVVKNNFVPTNVGSKAF; ends and bridges not checked; UniProt P06881 90-119, looked up, fragment)”, the “effect on increased facial blood flow” value in the experiment with facial blood flow [1] is “inhibited”. The “effect on increase in diameter of the middle meningeal artery” value in the experiment with middle meningeal artery is listed as “blocked”.

What is called Ki is the dissociation constant of the complex between target and ligand, obtained from inhibition or displacement. Take `CC(C)(C)OC(=O)CC(NC(=O)c1cnc2cc3c(cc2c1)C[C@@]1(C3)C(=O)Nc2ncccc21)c1ccccc1` (stereo partly shown) [Example 36]: the Ki on Human CGRP receptor (setting [5]) was found to be 76 nM.

Regarding `NCCCC[C@H](NC(=O)[C@@H](Cc1cc(Br)c(O)c(Br)c1)NC(=O)N1CCC(N2Cc3ccccc3NC2=O)CC1)C(=O)N1CCN(c2ccncc2)CC1` [BIBN4096BS], the “effect on increase in facial blood flow” value in the experiment on facial blood flow [2] is on record as “blocked”. Moreover, the “efficacy in treating acute attacks of migraine” value in experiment [3] was “effective in treating acute attacks of migraine”. Also, the “prevention of headache induced by CGRP infusion” value in experiment [4] is reported as “able to prevent headache induced by CGRP infusion”.

For the molecule `CC(c1cc(F)cc(F)c1)N(Cc1cnc2cc3c(cc2c1)C[C@@]1(C3)C(=O)Nc2ncccc21)C(=O)C1CCOCC1` (stereo in doubt) [Example 1, N-[(1R)-1-(3,5-Difluorophenyl)ethyl]-N-{[(7S)-2′-oxo-1′,2′,6,8-tetrahydrospiro-[cyclopenta[g]quinoline-7,3′-pyrrolo[2,3-b]pyridin]-3-yl]methyl}tetrahydro-2H-pyran-4-carboxamide], the Ki on Human CGRP receptor (setting [6]) turned out to be 0.05 nM.

Consider `CC(C)(C)OC(=O)[C@H](NC(=O)c1cnc2cc3c(cc2c1)C[C@@]1(C3)C(=O)Nc2ncccc21)c1ccccc1` [Example 33], for which, on Human CGRP receptor (setting [5]), the Ki worked out at 120 nM.

As for `CCOC(=O)CN(Cc1ccccc1)C(=O)c1cnc2cc3c(cc2c1)C[C@@]1(C3)C(=O)Nc2ncccc21` [Example 2, Ethyl(benzyl{[(7S)-2′-oxo-1′,2′,6,8-tetrahydrospiro[cyclopenta[g]quinoline-7,3′-pyrrolo[2,3-b]pyridin]-3-yl]carbonyl}amino)acetate], on Human CGRP receptor (setting [6]), the Ki came out at 60 nM.

For `CC(C)(C)OC(=O)[C@@H](NC(=O)c1cnc2cc3c(cc2c1)C[C@@]1(C3)C(=O)Nc2ncccc21)c1ccccc1` [Example 34], on Human CGRP receptor (setting [5]), the Ki stood at 140 nM.
